Measured values as given in ChEMBL document CHEMBL3407497, “Discovery of small molecule inhibitors to Krüppel-like factor 10 (KLF10): implications for modulation of T regulatory cell differentiation” (J Med Chem, 2015).
Each block holds one molecule with its values, some of them ahead of it. Activity calls are given as the source filed them. No cut-off for these calls is given here.

How the values were obtained:
HEK293 = assay: Inhibition of GLI (unknown origin) expressed in HEK293 cells assessed as reduction in GLI-mediated transcription at 30 uM; assay type: cell-based; conditions: Homo sapiens
[1] = target: Krueppel-like factor 1 (Homo sapiens) (UniProt Q13351); assay: Inhibition of KLF1 (unknown origin) binding to DNA at 8 uM incubated for 4 hrs followed by biotin-labeled probes addition and incubated for another 1 hr by electromobility gel shift assay
[2] = target: T1, Krueppel-like factor 10 (Homo sapiens) (UniProt Q13118); assay: Inhibition of KLF10 (unknown origin) binding to DNA at 40 uM incubated for 4 hrs followed by biotin-labeled probes addition and incubated for another 1 hr by electromobility gel shift assay
T1 sequence (whole entry): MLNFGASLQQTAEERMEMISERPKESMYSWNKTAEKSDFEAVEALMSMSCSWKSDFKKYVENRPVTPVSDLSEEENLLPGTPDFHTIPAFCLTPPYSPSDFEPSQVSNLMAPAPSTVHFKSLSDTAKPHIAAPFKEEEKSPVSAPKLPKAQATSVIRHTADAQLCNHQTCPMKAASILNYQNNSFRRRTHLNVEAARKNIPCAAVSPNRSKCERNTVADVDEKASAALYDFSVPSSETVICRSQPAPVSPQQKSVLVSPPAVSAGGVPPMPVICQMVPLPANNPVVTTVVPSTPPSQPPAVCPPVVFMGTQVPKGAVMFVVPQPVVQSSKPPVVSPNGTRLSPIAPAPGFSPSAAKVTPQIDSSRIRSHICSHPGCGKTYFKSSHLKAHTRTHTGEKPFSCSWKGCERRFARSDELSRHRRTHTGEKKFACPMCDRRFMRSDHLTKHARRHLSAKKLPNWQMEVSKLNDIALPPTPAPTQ

T-cell [3] = assay: Inhibition of Foxp3 gene expression in mouse T regulatory cells at 50 uM measured during TGFbeta1-induced conversion of CD4(+) and CD25(-) cells to CD4(+) and CD25(+) cells incubated for 3 days by real-time quantitative PCR method; assay type: functional; conditions: 72 h
T-cell [4] = assay: Inhibition of mouse T regulatory cell differentiation assessed as inhibition of TGFbeta1-induced conversion of CD4(+) and CD25(-) cells to CD4(+) and CD25(+) cells incubated for 3 days by flow cytometry; assay type: functional
Krueppel-like factor 10 = target: T2, Krueppel-like factor 10 (Homo sapiens, UniProt Q13118); assay: Inhibition of human KLF10 expressed in human HeLa cells assessed as reduction in transcriptional activity after 24 hrs by CACCC-responsive promoter driven TK-luciferase reporter gene assay; assay type: cell-based
T2 sequence (Q13118 whole entry): T1 sequence (whole entry)

[5] = target: Krueppel-like factor 1 (Homo sapiens) (UniProt Q13351); assay: Inhibition of KLF1 (unknown origin) binding to DNA at 40 uM incubated for 4 hrs followed by biotin-labeled probes addition and incubated for another 1 hr by electromobility gel shift assay
[6] = target: T1, Krueppel-like factor 10 (Homo sapiens); assay: Inhibition of KLF10 (unknown origin) binding to DNA at 8 uM incubated for 4 hrs followed by biotin-labeled probes addition and incubated for another 1 hr by electromobility gel shift assay
[7] = Inhibition of zinc finger protein C7 (unknown origin) assessed as reduction in transcriptional activity by luciferase reporter gene assay relative to untreated control; design: species or system Homo sapiens

Sequence of Krueppel-like factor 1 (Homo sapiens) (Q13351 whole entry): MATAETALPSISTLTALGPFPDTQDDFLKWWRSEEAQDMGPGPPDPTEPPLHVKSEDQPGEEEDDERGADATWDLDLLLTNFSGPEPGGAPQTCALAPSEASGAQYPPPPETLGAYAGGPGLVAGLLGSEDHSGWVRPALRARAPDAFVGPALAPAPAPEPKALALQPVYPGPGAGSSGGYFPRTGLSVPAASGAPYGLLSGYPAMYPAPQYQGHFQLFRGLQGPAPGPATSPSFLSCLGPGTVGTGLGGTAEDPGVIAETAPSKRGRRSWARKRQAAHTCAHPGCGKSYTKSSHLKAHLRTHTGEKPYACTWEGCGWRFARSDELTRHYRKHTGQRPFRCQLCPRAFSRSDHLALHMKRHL

Structure (SMILES): c1cc(-c2sc(-c3ccncc3)c(-c3ccncc3)c2-c2ccncc2)ccn1
- inhibition (HEK293): Active

Structure (SMILES): CN(C)c1ccccc1CN1CCCN(Cc2ccccc2N(C)C)C1c1ccncc1
- inhibition (HEK293): Active

Structure (SMILES): c1ccc2[nH]c(-c3ccnc4ccccc34)nc2c1
- EC50 [7]: 35 µM

Continued, in another order:

- inhibition [1]: inactive
- inhibition [2]: 45%
- IC50 (Krueppel-like factor 10): 40 µM
- inhibition [5]: inactive
- inhibition [6]: 12%
Structure (SMILES): COc1ccc(C(=O)COC(=O)c2cc(C)ccc2O)cc1
- inhibition at 50 µM (T-cell [3]): 82.5%
- inhibition (INH) (T-cell [4]): 59.1%

- inhibition [1]: inactive
- inhibition [2]: 25%
- inhibition [5]: inactive
- inhibition [6]: 11%
Structure (SMILES): Cc1ccc(OCC(=O)c2cc(C)c(O)cc2O)cc1
- inhibition at 50 µM (T-cell [3]): 84.7%

- inhibition [6]: 25%
Structure (SMILES): Cc1sc2nc(SCC(=O)c3ccc(O)c(O)c3)[nH]c(=O)c2c1C
- inhibition at 50 µM (T-cell [3]): 90.8%
- inhibition (INH) (T-cell [4]): 29.2%
